This is an account of results in ChEMBL document CHEMBL4229477, “Reevaluating the Substrate Specificity of the L-Type Amino Acid Transporter (LAT1)” (J Med Chem, 2018).

The target in this assay is Large neutral amino acids transporter small subunit 1 (Homo sapiens, UniProt Q01650). Nature of the assay: Cis-inhibition of human LAT1 expressed in TREx HEK293 cells at 200 uM assessed as inhibition of [3H]-gabapentin uptake preincubated for 3 mins at 37 degC followed by washing with choline buffer and measured after 3 hrs by scintillation counting analysis relative to BCH. The assay is classed as cell-based.
Large neutral amino acids transporter small subunit 1, sequence (Q01650 whole entry): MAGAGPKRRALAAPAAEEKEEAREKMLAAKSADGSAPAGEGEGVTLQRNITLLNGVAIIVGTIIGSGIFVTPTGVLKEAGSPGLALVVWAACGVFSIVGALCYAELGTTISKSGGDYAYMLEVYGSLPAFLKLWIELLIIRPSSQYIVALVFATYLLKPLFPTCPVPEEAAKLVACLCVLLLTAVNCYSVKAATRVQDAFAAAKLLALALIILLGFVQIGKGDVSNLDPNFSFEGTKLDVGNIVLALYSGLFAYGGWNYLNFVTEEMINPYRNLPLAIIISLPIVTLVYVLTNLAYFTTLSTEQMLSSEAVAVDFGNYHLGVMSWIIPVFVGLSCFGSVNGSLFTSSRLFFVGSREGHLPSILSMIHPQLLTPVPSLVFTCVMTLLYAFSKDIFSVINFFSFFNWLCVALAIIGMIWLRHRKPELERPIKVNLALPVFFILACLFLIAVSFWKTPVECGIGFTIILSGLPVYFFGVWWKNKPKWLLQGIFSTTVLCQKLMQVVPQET

One may read the IC50 as the concentration at which inhibition is half-maximal. For the molecule `N[C@@H](Cc1ccccc1)C(=O)O` [PHENYLALANINE], the IC50 was 69 µM.

For `N[C@@H](Cc1ccc(O)cc1)C(=O)O` [TYROSINE], the IC50 is 68 µM. On to `N[C@@H](Cc1ccccn1)C(=O)O`, for which the 50% inhibitory concentration (IC50) is 160 µM. As for `CC(C)[C@H](N)C(=O)O` [VALINE], the 50% inhibitory concentration (IC50) was 68 µM. `Cc1cc(C[C@H](N)C(=O)O)cc(C(=O)O)c1`: the 50% inhibitory concentration (IC50) is 680 µM. With `N[C@H](CC1CCCCC1)C(=O)O` the figure was 260 µM; with `N[C@H](Cc1c[nH]c2ccccc12)C(=O)O` [D-TRYPTOPHAN], 380 µM; with `COC(=O)Cc1cccc(C[C@H](N)C(=O)O)c1`, 76 µM. With `CC[C@H](C)[C@@H](N)C(=O)O` the figure was greater than 3000 µM; with `CC(C)C[C@H](N)C(=O)O` [LEUCINE], 85 µM; with `N[C@@H](CC1CCCCC1)C(=O)O`, 200 µM. The value for `CC(=O)c1cccc(C[C@H](N)C(=O)O)c1` was 92 µM; that for `CNC(=O)c1cccc(C[C@H](N)C(=O)O)c1` was 96 µM; that for `COC(=O)c1cc(C)cc(C[C@H](N)C(=O)O)c1` was 95 µM.

With `N[C@H](Cc1ccc(O)cc1)C(=O)O`, the IC50 came to 380 µM. Turning to `CC[C@H](C)[C@H](N)C(=O)O` [ISOLEUCINE], the IC50 turned out to be 140 µM.

For `COC(=O)c1cccc(C[C@@H](N)C(=O)O)c1`, the IC50 turned out to be 150 µM. The value for `N[C@@H](Cc1cccc(CO)c1)C(=O)O` was 83 µM; that for `C[C@@](N)(Cc1ccccc1)C(=O)O` was 810 µM. `N[C@@H](Cc1c[nH]cn1)C(=O)O` [HISTIDINE]: the half-inhibitory concentration (IC50) turned out to be 20 µM.

Consider `CC(C)C[C@@H](N)C(=O)O` [D-LEUCINE], for which the concentration for half-maximal inhibition (IC50) was determined as 220 µM. Take `Cn1cnc(C[C@H](N)C(=O)O)c1`: the half-inhibitory concentration (IC50) amounted to 190 µM. For `N[C@@H](Cc1cccnc1)C(=O)O`, the 50% inhibitory concentration (IC50) came out at 69 µM. The value for `NCc1cccc(C[C@H](N)C(=O)O)c1` was 470 µM. `COC(=O)c1ccc(C[C@H](N)C(=O)O)cc1`: the 50% inhibitory concentration (IC50) turned out to be 260 µM. The value for `CC(C)[C@@H](N)C(=O)O` was greater than 50000 µM; that for `C[C@](N)(Cc1ccccc1)C(=O)O` was 130 µM; that for `N[C@H](Cc1ccccc1)C(=O)O` [D-PHENYLALANINE] was 46 µM. The value for `CSCC[C@@H](N)C(=O)O` was 120 µM; that for `N[C@@H](Cc1ccncc1)C(=O)O` was 100 µM.

Turning to `CSCC[C@](N)(Cc1ccccc1)C(=O)O`, the IC50 was 240 µM.

As for `N[C@@H](Cc1c[nH]c2ccccc12)C(=O)O` [TRYPTOPHAN], the IC50 came out at 160 µM. With `COC(=O)c1cccc(C[C@H](N)C(=O)O)c1` the figure was 36 µM. The value for `N[C@@H](Cc1cccc(C(=O)O)c1)C(=O)O` was 130 µM; that for `N[C@@H](Cc1cccc(C(=O)OCCO)c1)C(=O)O` was 29 µM; that for `Nc1cccc(C[C@H](N)C(=O)O)c1` was 101 µM. The value for `CSCC[C@H](N)C(=O)O` [METHIONINE] was 170 µM. With `N[C@@H](Cc1cn(Cc2ccccc2)cn1)C(=O)O`, the IC50 is 170 µM. The value for `N[C@@H](Cc1cccc(O)c1)C(=O)O` was 130 µM; that for `CC(=O)Nc1cccc(C[C@H](N)C(=O)O)c1` was 110 µM; that for `CC(C)(C)OC(=O)c1cccc(C[C@H](N)C(=O)O)c1` was 17 µM.

For `N[C@H](Cc1c[nH]cn1)C(=O)O` [D-HISTIDINE], the IC50 came to 460 µM.
